The source made the active and inactive calls. No cut-off for these calls is given here.
What follows are molecules tested on iNKT (assay: Antigenic activity in mouse iNKT cells co-cultured with N38-2C12 cells assessed as potentiation of glycolipid loaded bone marrow dendritic cells-induced IL-2 secretion by ELISA).
Type: functional, cell-based

Compound	Activity
CCCCCCCCCCCCCCCCCCCCCCCCCC(=O)N[C@@H](CO[C@H]1O[C@H](Cn2cc(-c3ccccc3)nn2)[C@H](O)[C@H](O)[C@H]1O)[C@H](O)[C@H](O)CCCCCCCCCCCCCC	Active
CCCCCCCCCCCCCCCCCCCCCCCCCC(=O)N[C@@H](CO[C@H]1O[C@H](Cn2cc(CCCc3ccccc3)nn2)[C@H](O)[C@H](O)[C@H]1O)[C@H](O)[C@H](O)CCCCCCCCCCCCCC	Active
CCCCCCCCCCCCCCCCCCCCCCCCCC(=O)N[C@@H](CO[C@H]1O[C@H](Cn2cc(CCc3ccccc3)nn2)[C@H](O)[C@H](O)[C@H]1O)[C@H](O)[C@H](O)CCCCCCCCCCCCCC	Active
CCCCCCCCCCCCCCCCCCCCCCCCCC(=O)N[C@@H](CO[C@H]1O[C@H](Cn2cc(CCCC)nn2)[C@H](O)[C@H](O)[C@H]1O)[C@H](O)[C@H](O)CCCCCCCCCCCCCC	Active
CCCCCCCCCCCCCCCCCCCCCCCCCC(=O)N[C@@H](CO[C@H]1O[C@H](Cn2cc(Cc3ccccc3)nn2)[C@H](O)[C@H](O)[C@H]1O)[C@H](O)[C@H](O)CCCCCCCCCCCCCC	Active
CCCCCCCCCCCCCCCCCCCCCCCCCC(=O)N[C@@H](CO[C@H]1O[C@H](Cn2ccnn2)[C@H](O)[C@H](O)[C@H]1O)[C@H](O)[C@H](O)CCCCCCCCCCCCCC	Active

From ChEMBL document CHEMBL2203024, “Synthesis of 6"-triazole-substituted α-GalCer analogues as potent iNKT cell stimulating ligands” (Bioorg Med Chem, 2012)
